Values after ≈ are worked out from the molar mass of the structure shown. Where two headings read alike, the source gives them in different places.
Assays:
[1] = system: CaCo-2 (colorectal adenocarcinoma) cells; assay: MTS cytotoxicity assay, CaCo-2; format: cell-based; conditions: Homo sapiens, concentrations 1, 10, 50, 100, 300 µM, mean ± SD
Experimental: (§1) Several tumor cell lines were used in this study including HeLa (cervical adenocarcinoma) HepG2, and Hep3B (HCC); B16F1 (melanoma); MCF-7 (breast carcinoma); Colo205 (colon adenocarcinoma); and CaCo-2 (colorectal adenocarcinoma), in addition to two normal cell lines LX-2 (human hepatic stellate) and Hek293t (kidney cell lines). All evaluated cells were incubated in RPMI-1640 medium and supplemented by 1% of Penicillin/Streptomycin antibiotics, 1% of l-glutamine, and 10% fetal bovine serum. The selected cells were cultivated at 37 °C in a wet environment containing 5% CO2.. In a 96-well plate, the seeding of cells was conducted as 2.5 × 10^4 cells per well. After 72 hr, the cells were confluent, the media was refreshed, and after that, all cells were incubated by several compounds’ concentrations (1, 10, 50, 100, and 300 µM). The viability of cells was investigated by the Cell Tilter 96® Aqueous One Solution Cell Proliferation (MTS) assay regarding the manufacturer’s instructions (Promega Corporation, Madison, WI). In the last step, 20 μL of MTS per 100 μL of media were added to each well and kept at 37 °C; after that at 490 nm wavelength the absorbance was collected.

[2] = system: HeLa (cervical adenocarcinoma) cells; assay: MTS cytotoxicity assay, HeLa; format: cell-based; conditions: Homo sapiens, concentrations 1, 10, 50, 100, 300 µM, mean ± SD
Experimental: as §1

[3] = system: MCF-7 (breast carcinoma) cells; assay: MTS cytotoxicity assay, MCF-7; format: cell-based; conditions: Homo sapiens, MCF7, concentrations 1, 10, 50, 100, 300 µM, mean ± SD
Experimental: as §1

[4] = system: LX-2 (human hepatic stellate) cells; assay: MTS cytotoxicity assay, normal cell line LX-2; format: cell-based; conditions: concentrations 1, 10, 50, 100, 300 µM
Experimental: as §1

[5] = system: Hek293t (kidney cell lines); assay: MTS cytotoxicity assay, normal cell line Hek293t; format: cell-based; conditions: Homo sapiens, HEK-293T, concentrations 1, 10, 50, 100, 300 µM, mean ± SD
Experimental: as §1

[6] = system: Hep3B (HCC) cells; assay: MTS cytotoxicity assay, Hep3B; format: cell-based; conditions: Homo sapiens, concentrations 1, 10, 50, 100, 300 µM, mean ± SD
Experimental: as §1

[7] = system: Colo205 (colon adenocarcinoma) cells; assay: MTS cytotoxicity assay, Colo205; format: cell-based; conditions: Homo sapiens, COLO 205, concentrations 1, 10, 50, 100, 300 µM, mean ± SD
Experimental: as §1

[8] = system: HepG2 (HCC) cells; assay: MTS cytotoxicity assay, HepG2; format: cell-based; conditions: Homo sapiens, concentrations 1, 10, 50, 100, 300 µM, mean ± SD
Experimental: as §1

[9] = system: Hep3B liver cancer cells; assay: Hepatocellular carcinoma spheroids formation test (3D); format: cell-based; conditions: 24 h; for Effect on Hep3B spheroid formation: 17 μg/mL, compared to non-treated cells
Experimental: Hep3B liver cancer cells (4 × 10^3 per well) were seeded in round-bottomed supra-low attachment well plates over 24 h in the presence of 2b or 2e (17 μg/mL). Doxorubicin, a chemotherapeutic medication, was used as a positive control (100 μg/mL). Images of the formed spheroids/clusters were captured at 0 h and 24 h using an inverted microscope with a final magnification of 100×. The photographs of the spheroids were assessed and quantified using ImageJ software.

[10] = system: B16F1 (melanoma) cells; assay: MTS cytotoxicity assay, B16F1; format: cell-based; conditions: Mus musculus, B16-F1, concentrations 1, 10, 50, 100, 300 µM, mean ± SD
Experimental: as §1

[11] = system: Hep3B (HCC); parameters: method as in PMID 33763478; conditions: cited from earlier work
[12] = system: Hep3B (HCC); conditions: cited from earlier work
[13] = cited from earlier work
[14] = cited from earlier work; remark: listed apart in the source
[15] = cited from earlier work; remark: listed apart in the source

Compound | IC50 [1] [µM] | IC50 [2] [µM] | IC50 [3] [µM] | IC50 [4] [µM] | IC50 [5] [µM] | IC50 [6] [µM] | IC50 [7] [µM] | IC50 [8] [µM] | Effect on Hep3B spheroid formation (positive control) ([9]; 100 μg/mL) | IC50 [10] [µM] | melting point [°C] | Cell cycle effect [11] | IC50 against Hep3B ([12]; earlier isoxazole-carboxamide series, ortho halogen) [µg/mL] | Effect on Hep3B spheroid formation [9] | IC50 against Hep3B ([12]; earlier fluorophenyl-isoxazole series, para halogen) [µg/mL] | IC50 against Hep3B ([12]; earlier series with two halogens at ortho positions) [µg/mL] | Water solubility [13] | Chemical stability [14] | Plasma half-life [15]
COc1cccc2c1C(=O)c1c(O)c3c(c(O)c1C2=O)C[C@@](O)(C(=O)CO)C[C@@H]3O[C@H]1C[C@H](N)[C@H](O)[C@H](C)O1 [DOX, Doxorubicin, reference compound] | < 1 | 1.55 ± 1.35 | < 1 | < 1 | 1.24 ± 0.87 | 1.21 ± 1 | < 1 | 1.6 ± 0.67 | no recognized sphere formation | < 1 |  |  |  |  |  |  |  |  | 
CC(C)(C)c1ccc(NC(=O)c2ccc(-c3ccc(F)cc3)s2)cc1 [2c, N-(4-(tert-butyl)phenyl)-5-(4-fluorophenyl) thiophene-2-carboxamide] | > 300 | > 300 | > 300 | > 300 | > 300 | 189 ± 2.78 | > 300 | > 300 |  | > 300 | 218.5 to 220.4 |  |  |  |  |  |  |  | 
COc1ccc(OC)c(NC(=O)c2c(-c3ccccc3Cl)noc2C)c1 [St.1, 3-(2-chlorophenyl)-N-(2,5-dimethoxyphenyl)-5-methylisoxazole-4-carboxamide] |  |  |  |  |  |  |  |  |  |  |  | cell cycle arrest in the G2/M phase | 23 (≈ 61.7 µM) |  |  |  |  |  | 
COc1cc(NC(=O)c2ccc(-c3ccc(F)cc3)s2)cc(OC)c1OC [2b, 5-(4-fluorophenyl)-N-(3,4,5-trimethoxyphenyl) thiophene-2-carboxamide] | > 300 | 205 | 29.7 ± 2.74 | > 300 | 278.1 ± 2.75 | 5.46 ± 1.47 | 35.1 ± 2.05 | > 300 |  | > 300 | 190.8 to 192 |  |  | significantly smaller spheroid |  |  |  |  | 
COc1ccc(NC(=O)c2c(-c3ccc(F)cc3)noc2C)cc1OC [St.2, N-(3,4-dimethoxyphenyl)-3-(4-fluorophenyl)-5-methylisoxazole-4-carboxamide] |  |  |  |  |  |  |  |  |  |  |  |  |  |  | 7.66 (≈ 21.5 µM) |  |  |  | 
COc1cc(NC(=O)c2ccc(-c3ccc(F)cc3)s2)c(OC)cc1Cl [2e, N-(4-chloro-2,5-dimethoxyphenyl)-5-(4-flurophenyl)thiophene-2-carboxamide] | 82.9 ± 2.45 | 39.6 ± 1.88 | 42.5 ± 2.59 | > 300 | 105 ± 1.08 | 12.6 ± 2.57 | 74.8 ± 1.45 | 18.2 ± 0.78 |  | 112 ± 1.99 | 185.5 to 187.5 |  |  | inhibited spheroid formation |  |  |  |  | 
Cc1onc(-c2c(F)cccc2Cl)c1C(=O)Nc1ccc(C(C)(C)C)cc1 [St.3, N-(4-(tert-butyl)phenyl)-3-(2-chloro-6-fluorophenyl)-5-methylisoxazole-4-carboxamide] |  |  |  |  |  |  |  |  |  |  |  |  |  |  |  | 2.77 (≈ 7.16 µM) |  |  | 
COc1cc(NC(=O)c2ccc(-c3ccc(F)cc3)s2)cc(OC)c1 [2d, N-(3,5-dimethoxyphenyl)-5-(4-fluorophenyl) thiophene-2-carboxamide] | > 300 | > 300 | > 300 | > 300 | > 300 | 8.85 ± 1.45 | > 300 | > 300 |  | > 300 | 156.5 to 157 |  |  |  |  |  |  |  | 
COc1ccc(/C=C\c2cc(OC)c(OC)c(OC)c2)cc1O [CA-4, Combretastatin A-4] |  |  |  |  |  |  |  |  |  |  |  |  |  |  |  |  | poor | chemical instability | short
O=C(Nc1ccccc1)c1ccc(-c2ccc(F)cc2)s1 [2a, 5-(4-fluorophenyl)-N-phenylthiophene-2-carboxamide] | > 300 | > 300 | > 300 | > 300 | > 300 | 28 ± 2.05 | > 300 | 283.7 ± 1.79 |  | > 300 | 203.5 to 205 |  |  |  |  |  |  |  | 

— publication PMC9775471, “Anticancer Activity of Thiophene Carboxamide Derivatives as CA-4 Biomimetics: Synthesis, Biological Potency, 3D Spheroid Model, and Molecular Dynamics Simulation” (Biomimetics, 2022)
